Our source for the logP and LD90 values is ChEMBL document CHEMBL3046374, “Preparation of 5-chloro-6-fluoroimidacloprid analogs and comparison of their insecticidal activity in a laboratory test with a 6-chloro-5-fluoro analog” (J Pestic Sci, 2007).

What is called logP is a log measure of how a compound divides between an organic and an aqueous phase. A higher logP goes with a more lipophilic compound.

Series [1] in a line: Lipophilicity, logP of the compound at 25 degC. Type of series: physicochemical. As to conditions: octanol/water.
Series [2] concerns Spodoptera litura. Description: Insecticidal activity against Spodoptera litura second-instar larvae fed on compound pre-treated cabbage leaves assessed as insect mortality measured 5 days post compound treatment. The class given is functional.
For series [3], the system named is Myzus persicae. The experiment in a line: Insecticidal activity against Myzus persicae (green peach aphid) first-instar nymphs fed on compound pre-treated egg plant seedlings or Japanese radish leaves assessed as insect mortality measured 5 days post compound treatment. The class given is functional.
Series [4] deals with Nilaparvata lugens. The experiment in a line: Insecticidal activity against Nilaparvata lugens (brown planthopper) second or third-instar nymphs fed on compound pre-treated rice seedlings assessed as insect mortality measured 5 days post compound treatment. Type of series: functional.

Bounds are passed on as bounds.

Turning to `O=[N+]([O-])/N=C1/NCCN1Cc1cnc(F)c(Cl)c1`, the logP in series [1] stood at 0.98. Also, the figures for the LD90 in series [2], in series [3] and in series [4] were more than 200 ppm, 200 ppm and 50 ppm, respectively.
`O=[N+]([O-])/N=C1\NCCN1Cc1ccc(Cl)nc1` [IMIDACLOPRID]: the LD90 is recorded as more than 50 ppm in series [2], 0.2 ppm in series [3] and 0.2 ppm in series [4].
Regarding `N#C/N=C1/OCCN1Cc1cnc(F)c(Cl)c1`, the LD90 is more than 200 ppm in series [2], 200 ppm in series [3] and more than 200 ppm in series [4].
Turning to `N#C/N=C1/SCCN1Cc1cnc(F)c(Cl)c1`, the LD90 is listed as more than 200 ppm in series [2], 50 ppm in series [3] and more than 200 ppm in series [4].
As to `O=[N+]([O-])/N=C1/NCCN1Cc1cnc(Cl)c(F)c1` [5-FLUOROIMIDACLOPRID], in series [1], the lipophilicity (logP) was 0.79. The values for the LD90 in series [2], in series [3] and in series [4] were more than 50 ppm, 0.2 ppm and 0.2 ppm, respectively.
With `O=[N+]([O-])/N=C1/SCCN1Cc1cnc(F)c(Cl)c1`, the LD90 in series [2], in series [3] and in series [4] was more than 200 ppm each time.
Take `N#C/N=C1/NCCN1Cc1cnc(F)c(Cl)c1`: the LD90 in series [2] was more than 200 ppm; in series [3] it was 200 ppm; in series [4] it was more than 200 ppm.
